Assay [1] deals with T1, human TRPV1 (Homo sapiens, UniProt Q8NER1).
T1 construct: expressed in transfected cells
The assay is described as follows: Capsaicin Activation Assay (FLIPR intracellular Ca2+, recombinant HEK293 cells). It counts as cell-based. The procedure: (i) Capsaicin Activation Assay
Dulbecco's modified Eagle medium (DMEM) (with 4.5 mg/mL glucose) and fetal bovine serum were obtained from Hyclone Laboratories, Inc. (Logan, Utah). Dulbecco's phosphate-buffered saline (DPBS) (with 1 mg/mL glucose and 3.6 mg/l Na pyruvate, without phenol red), L-glutamine, hygromycin B, and Lipofectamine® were obtained from Life Technologies (Grand Island, N.Y.). G418 sulfate was obtained from Calbiochem-Novabiochem Corp. (San Diego, Calif.). Capsaicin (8-methyl-N-vanillyl-6-nonenamide) was obtained from Sigma-Aldrich, Co. (St. Louis, Mo.). Fluo-4 AM (N-[4-[6-[(acetyloxy)-methoxy]-2,7-difluoro-3-oxo-3H-xanthen-9-yl]-2-[2-[2-[bis[2-[(acetyloxy)methoxy]-2-oxyethyl]amino]-5-methylphenoxy]ethoxy]phenyl]-N-[2-[(acetyloxy)methoxy]-2-oxyethyl]-glycine, (acetyloxy)methyl ester) was purchased from Molecular Probes (Eugene, Oreg.).
(§1) Expression plasmids encoding the hTRPV1 cDNA were transfected into HEK293 cells using Lipofectamine®. Forty-eight hours after transfection, the neomycin-resistant cells were selected with growth medium containing 800 μg/mL Geneticin (Life Technologies, formerly Gibco BRL). Surviving individual colonies were isolated and screened for TRPV1 activity. Cells expressing recombinant TRPV1 were maintained at 37° C. in DMEM containing 4 mM L-glutamine, 300 μg/mL G418 (Calbiochem) and 10% fetal bovine serum under a humidified 5% CO2 atmosphere.
The functional activity of compounds at the TRPV1 receptor was determined by measurement of intracellular Ca^2+ levels ([Ca^2+]i) using the Fluorescence Imaging Plate Reader (FLIPR)TETRA®. All compounds were tested over a 12-point one-third-log concentration range. Compound stocks, 10 mM, were prepared in DMSO, and diluted serially across a 384-well plate using a Bravo BenchCel workstation (Agilent Technologies, Santa Clara, Calif.). A stock concentration of capsaicin (10 mM) was made in DMSO, and diluted in DPBS to a final concentration of 200 nM (4×). On the day prior to the experiment, the recombinant HEK293 cells expressing human TRPV1 (hTRPV1) were removed from tissue culture flasks and plated in growth medium into black-walled clear-bottom 384-well Biocoat™ poly-D-lysine assay plates (BD Biosciences, Bedford, Mass.) using a Multidrop® dispenser (ThermoScientific, Waltham, Mass.). […] The plated cells were incubated for 90-120 minutes in the dark at room temperature and then test compound was added to each well. Three minutes later, 200 nM capsaicin (4×) solution was added to each well in an amount sufficient to provide a final assay volume of 80 μL and capsaicin concentration of 50 nM. Fluorescence readings were made at 1 to 5 second intervals over the course of the experimental run. The peak increase in relative fluorescence units (minus baseline) was calculated, and expressed as a percentage of the 50 nM capsaicin (control) response.

Assay [2] has as its target T1, human TRPV1. The experiment in a line: Acid Activation Assay (pH 5.0, FLIPR intracellular Ca2+, recombinant HEK293 cells). The settings on record: percentage of maximal pH 5.0-induced response remaining; HEK293 hTRPV1; max concentration 37.5 μM. It counts as cell-based. The procedure: (ii) Acid Activation Assay
Dulbecco's modified Eagle's medium (DMEM) with 4.5 mg/mL D-glucose, fetal bovine serum, L-glutamine, and 2-morpholinoethanesulfonic acid (MES) were purchased from Sigma-Aldrich Co. (St. Louis, Mo.). […] The FLIPR® Calcium 4 assay kit was purchased from Molecular Devices (Sunnyvale, Calif.).
as §1
The functional activity of compounds at the TRPV1 receptor was determined by measurement of intracellular Ca^2+ levels ([Ca^2+]i) using the Fluorescence Imaging Plate Reader (FLIPR)TETRA®. […] Compound stocks, 10 mM, were prepared in DMSO, and diluted serially across a 384-well plate using a Bravo BenchCel workstation (Agilent Technologies, Santa Clara, Calif.). On the day prior to the experiment, the recombinant HEK293 cells expressing human TRPV1 (hTRPV1) were removed from tissue culture flasks and plated in growth medium into black-walled clear-bottom 384-well Biocoat™ poly-D-lysine assay plates (BD Biosciences, Bedford, Mass.) using a Multidrop® dispenser (ThermoScientific, Waltham, Mass.). […] The plated cells were incubated for 90-120 min in the dark at 25° C. The test compounds dissolved in DMSO were then added to the plates using an Agilent Bravo workstation (Agilent Technologies Inc., Santa Clara, Calif.). Three minutes later, a pH 5.0 solution was added to each well. Reagents were delivered at a rate of 40 μL/sec, and the final assay volume was 80 μL. Acidic pH solutions were prepared by titration of DPBS/MES with 1 N HCl. The intensity of the fluorescence was captured and digitally transferred to an interfaced PC. The maximum peak measured for the concentration range tested was used to calculate the corresponding peak increase in fluorescence over baseline (relative fluorescence units) which was expressed as the percentage (max % remain) of the maximal pH 5.0-induced response.

Where [3] appears, read: recombinant HEK293 cells expressing hTRPV1, 50 nM capsaicin, read-out: human TRPV1 capsaicin IC50.

Read-outs that look alike come from different tables or passages of the source.

T1 sequence (Q8NER1 whole entry): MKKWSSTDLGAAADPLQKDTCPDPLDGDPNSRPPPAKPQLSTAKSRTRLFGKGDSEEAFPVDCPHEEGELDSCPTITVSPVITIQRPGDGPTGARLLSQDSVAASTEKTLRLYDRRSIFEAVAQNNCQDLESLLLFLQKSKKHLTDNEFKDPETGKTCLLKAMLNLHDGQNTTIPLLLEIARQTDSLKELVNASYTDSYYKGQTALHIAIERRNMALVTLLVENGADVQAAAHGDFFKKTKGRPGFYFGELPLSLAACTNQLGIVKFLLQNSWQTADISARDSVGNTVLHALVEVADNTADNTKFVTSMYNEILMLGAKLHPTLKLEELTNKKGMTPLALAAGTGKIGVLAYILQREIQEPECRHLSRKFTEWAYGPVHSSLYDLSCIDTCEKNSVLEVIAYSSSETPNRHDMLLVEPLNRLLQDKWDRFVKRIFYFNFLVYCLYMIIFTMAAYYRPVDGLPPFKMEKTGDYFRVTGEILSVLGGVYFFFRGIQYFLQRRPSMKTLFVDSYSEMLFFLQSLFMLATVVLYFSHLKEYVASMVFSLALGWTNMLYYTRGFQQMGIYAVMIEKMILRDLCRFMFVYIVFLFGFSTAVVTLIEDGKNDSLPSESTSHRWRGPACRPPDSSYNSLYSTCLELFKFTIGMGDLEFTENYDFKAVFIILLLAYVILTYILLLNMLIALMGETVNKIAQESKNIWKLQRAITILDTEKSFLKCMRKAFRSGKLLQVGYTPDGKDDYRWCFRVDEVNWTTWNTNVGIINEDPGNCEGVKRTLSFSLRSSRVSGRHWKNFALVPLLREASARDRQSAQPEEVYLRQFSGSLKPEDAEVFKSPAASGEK

Usually IC50 stands for the concentration that inhibits the measured activity by half. For `O=C(Nc1cccc2c1C[C@H](O)C2)N[C@H]1CC2(CCC2)Oc2ccc(F)cc21` [Example 101, 1-[(4S)-6-fluoro-3,4-dihydrospiro[chromene-2,1′-cyclobutan]-4-yl]-3-[(2R)-2-hydroxy-2,3-dihydro-1H-inden-4-yl]urea], the 50% inhibitory concentration (IC50) in assay [1] (setting [3]) turned out to be 1200 nM. Besides, the “human TRPV1 H+ (max % remain)” value in assay [2] is given as 90%.

On to `O=C(NCC1CCc2cc(C(F)(F)F)ccc2O1)Nc1cccc2c1C[C@H](O)C2` (stereo partly drawn) [Example 26, 1-[(2R)-2-hydroxy-2,3-dihydro-1H-inden-4-yl]-3-{[6-(trifluoromethyl)-3,4-dihydro-2H-chromen-2-yl]methyl}urea], for which the half-maximal inhibitory concentration (IC50) in assay [1] (setting [3]) is 770 nM. Further, the “human TRPV1 H+ (max % remain)” value in assay [2] is given as 66%.

In the case of `O=C(Nc1cccc2c1C[C@@H](O)C2)N[C@@H]1CC(CF)(CF)Oc2cc(C(F)(F)F)ccc21` [Example 74, 1-[(4R)-2,2-bis(fluoromethyl)-7-(trifluoromethyl)-3,4-dihydro-2H-chromen-4-yl]-3-[(2S)-2-hydroxy-2,3-dihydro-1H-inden-4-yl]urea], the IC50 in assay [1] (setting [3]) was 14 nM. Moreover, the “human TRPV1 H+ (max % remain)” value in assay [2] is 2%.

With `C[C@]1(CF)C[C@@H](NC(=O)Nc2ccc3c(c2)C(O)C3)c2ccccc2O1` (stereo partly drawn) [Example 132, 1-[(2R,4R)-2-(fluoromethyl)-2-methyl-3,4-dihydro-2H-chromen-4-yl]-3-(8-hydroxybicyclo[4.2.0]octa-1,3,5-trien-3-yl)urea], the IC50 in assay [1] (setting [3]) is 31000 nM. In assay [2], the “human TRPV1 H+ (max % remain)” value is 95%.

With `O=C(Nc1cccc2c1C[C@H](O)C2)N[C@@H]1CC(CF)(CF)Oc2cc(OC(F)(F)F)ccc21` [Example 31, 1-[(4R)-2,2-bis(fluoromethyl)-7-(trifluoromethoxy)-3,4-dihydro-2H-chromen-4-yl]-3-[(2R)-2-hydroxy-2,3-dihydro-1H-inden-4-yl]urea], the IC50 in assay [1] (setting [3]) was 41 nM. In addition, the “human TRPV1 H+ (max % remain)” value in assay [2] amounted to 30%.

In the case of `C[C@]1(CF)C[C@@H](NC(=O)Nc2cccc3c2C[C@H](O)C3)c2cccc(F)c2O1` [Example 66, 1-[(2R,4R)-8-fluoro-2-(fluoromethyl)-2-methyl-3,4-dihydro-2H-chromen-4-yl]-3-[(2R)-2-hydroxy-2,3-dihydro-1H-inden-4-yl]urea], the half-inhibitory concentration (IC50) in assay [1] (setting [3]) came to 280 nM. In addition, the “human TRPV1 H+ (max % remain)” value in assay [2] amounted to 86%.

Consider `O=C(Nc1ccc(F)c2c1C[C@@H](O)C2)N[C@@H]1CC(CF)(CF)Oc2cc(Cl)ccc21` [Example 133, 1-[(4R)-7-chloro-2,2-bis(fluoromethyl)-3,4-dihydro-2H-chromen-4-yl]-3-[(2R)-7-fluoro-2-hydroxy-2,3-dihydro-1H-inden-4-yl]urea], for which the IC50 in assay [1] was 220 nM. Further, the “human TRPV1 H+ (max % remain)” value in assay [2] is given as 36%.

For `O=C(Nc1cccc2c1CC(O)C2)NC1CC(c2ccc(C(F)(F)F)cc2)Oc2ccccc21` (centres unmarked) [Example 121, 1-(2-hydroxy-2,3-dihydro-1H-inden-4-yl)-3-{2-[4-(trifluoromethyl)phenyl]-3,4-dihydro-2H-chromen-4-yl}urea], in assay [1] (setting [3]), the half-maximal inhibitory concentration (IC50) was 680 nM. Further, in assay [2], the “human TRPV1 H+ (max % remain)” value was determined as 57%.

Take `CC1(C)C[C@@H](NC(=O)Nc2ccc(F)c3c2C[C@H](O)C3)c2ccccc2O1` [Example 145, 1-[(4R)-2,2-dimethyl-3,4-dihydro-2H-chromen-4-yl]-3-[(2S)-7-fluoro-2-hydroxy-2,3-dihydro-1H-inden-4-yl]urea]: the IC50 in assay [1] (setting [3]) is 3200 nM. Besides, the “human TRPV1 H+ (max % remain)” value in assay [2] is 7%.

Regarding `O=C(Nc1cccc2c1C[C@H](O)C2)N[C@@H]1CC2(CCC2)Oc2ccc(F)cc21` [Example 8, 1-[(4R)-6-fluoro-3,4-dihydrospiro[chromene-2,1′-cyclobutan]-4-yl]-3-[(2R)-2-hydroxy-2,3-dihydro-1H-inden-4-yl]urea], the IC50 in assay [1] (setting [3]) came to 35 nM. The “human TRPV1 H+ (max % remain)” value in assay [2] was 50%.

Take `CC1(C)C[C@@H](NC(=O)Nc2cccc3c2C[C@H](O)C3)c2cccc(C(F)(F)F)c2O1` [Example 29, 1-[(4R)-2,2-dimethyl-8-(trifluoromethyl)-3,4-dihydro-2H-chromen-4-yl]-3-[(2R)-2-hydroxy-2,3-dihydro-1H-inden-4-yl]urea]: the half-maximal inhibitory concentration (IC50) in assay [1] (setting [3]) was 15 nM. Moreover, the “human TRPV1 H+ (max % remain)” value in assay [2] came out at 72%.

Regarding `O=C(Nc1cccc2c1CC(O)C2)NC1c2ccccc2OCC1Cc1ccccc1` (centres unmarked) [Example 111, 1-(3-benzyl-3,4-dihydro-2H-chromen-4-yl)-3-(2-hydroxy-2,3-dihydro-1H-inden-4-yl)urea], the IC50 in assay [1] (setting [3]) was determined as 2200 nM. Besides, the “human TRPV1 H+ (max % remain)” value in assay [2] stood at 94%.

On to `O=C(Nc1cccc2c1C[C@H](O)C2)N[C@@H]1CCOc2ccccc21` [Example 47, 1-[(4R)-3,4-dihydro-2H-chromen-4-yl]-3-[(2R)-2-hydroxy-2,3-dihydro-1H-inden-4-yl]urea], for which the half-maximal inhibitory concentration (IC50) in assay [1] (setting [3]) stood at 4100 nM. The “human TRPV1 H+ (max % remain)” value in assay [2] was found to be 81%.

Consider `O=C(Nc1cccc2c1CC(O)C2)NC1c2ccccc2OCC1c1ccc(Cl)cc1` (centres unmarked) [Example 115, 1-[3-(4-chlorophenyl)-3,4-dihydro-2H-chromen-4-yl]-3-(2-hydroxy-2,3-dihydro-1H-inden-4-yl)urea], for which the half-maximal inhibitory concentration (IC50) in assay [1] (setting [3]) amounted to 1100 nM. Also, the “human TRPV1 H+ (max % remain)” value in assay [2] is listed as 94%.

For `CCC1(CC)C[C@@H](NC(=O)Nc2cccc3c2C[C@H](O)C3)c2ccccc2O1` [Example 49, 1-[(4R)-2,2-diethyl-3,4-dihydro-2H-chromen-4-yl]-3-[(2R)-2-hydroxy-2,3-dihydro-1H-inden-4-yl]urea], in assay [1] (setting [3]), the concentration for half-maximal inhibition (IC50) was 22 nM. Besides, in assay [2], the “human TRPV1 H+ (max % remain)” value is 75%.

Take `CCC1(CC)C[C@@H](NC(=O)Nc2cccc3c2C[C@H](O)C3)c2cccc(F)c2O1` [Example 48, 1-[(4R)-2,2-diethyl-8-fluoro-3,4-dihydro-2H-chromen-4-yl]-3-[(2R)-2-hydroxy-2,3-dihydro-1H-inden-4-yl]urea]: the concentration for half-maximal inhibition (IC50) in assay [1] (setting [3]) is 24 nM. In assay [2], the “human TRPV1 H+ (max % remain)” value is recorded as 89%.

Regarding `CC1(C)C[C@@H](NC(=O)Nc2ccc(F)c3c2C[C@H](O)C3)c2ccc(C(F)(F)F)cc2O1` [Example 140, 1-[(4R)-2,2-dimethyl-7-(trifluoromethyl)-3,4-dihydro-2H-chromen-4-yl]-3-[(2S)-7-fluoro-2-hydroxy-2,3-dihydro-1H-inden-4-yl]urea], the half-maximal inhibitory concentration (IC50) in assay [1] (setting [3]) came out at 58 nM. For the same compound, in assay [2], the “human TRPV1 H+ (max % remain)” value is given as 2%.

As for `C[C@]1(C(F)F)C[C@@H](NC(=O)Nc2cccc3c2C[C@H](O)C3)c2ccccc2O1` [Example 127, 1-[(2R,4R)-2-(difluoromethyl)-2-methyl-3,4-dihydro-2H-chromen-4-yl]-3-[(2R)-2-hydroxy-2,3-dihydro-1H-inden-4-yl]urea], the IC50 in assay [1] (setting [3]) was determined as 260 nM. Further, the “human TRPV1 H+ (max % remain)” value in assay [2] came to 62%.

As for `O=C(Nc1ccc(F)c2c1C[C@@H](O)C2)N[C@@H]1CC2(CCC2)Oc2ccc(F)cc21` [Example 163, 1-[(4R)-6-fluoro-3,4-dihydrospiro[chromene-2,1′-cyclobutan]-4-yl]-3-[(2R)-7-fluoro-2-hydroxy-2,3-dihydro-1H-inden-4-yl]urea], the IC50 in assay [1] (setting [3]) turned out to be 690 nM. For the same compound, the “human TRPV1 H+ (max % remain)” value in assay [2] is given as 38%.
